Test results from PubChem BioAssay AID256 (DTP/NCI, 2004).
Where “and” joins values, the source holds several entries; their conditions need not be identical. Identical values can stand only once. Toxic doses and inconclusive results are not listed. How the source made its calls: active means survival T/C of 150% or more; inactive means T/C below 125% in these data.

Tested on: CD2F1 mice, L1210 leukemia ip, survival T/C
Assay: NCI In Vivo Anticancer Drug Screen. Data for tumor model L1210 Leukemia (intraperitoneal) in CD2F1 (CDF1) mice
Conditions: higher = longer survival
Outline: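 In this screen, transplantable tumors were grown in mice given either the compound or its vehicle. Results were expressed as the treated measurement relative to the control measurement.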

[1] = endpoint: mean survival time, dose: 100.0 mg/kg/injection, schedule: Q01DX001 (ip), vehicle: saline
[2] = endpoint: mean survival time, dose: 100.0 mg/kg/injection, schedule: Q04DX003 (ip), vehicle: saline with Tween-80
[3] = endpoint: mean survival time, dose: 100.0 mg/kg/injection, schedule: Q04DX003 (ip), vehicle: saline
[4] = endpoint: mean survival time, dose: 200.0 mg/kg/injection, schedule: Q04DX003 (ip), vehicle: saline with Tween-80
[5] = endpoint: mean survival time, dose: 200.0 mg/kg/injection, schedule: Q04DX003 (ip), vehicle: saline
[6] = endpoint: mean survival time, dose: 400.0 mg/kg/injection, schedule: Q04DX003 (ip), vehicle: saline with Tween-80
[7] = endpoint: mean survival time, dose: 400.0 mg/kg/injection, schedule: Q04DX003 (ip), vehicle: saline
[8] = endpoint: mean survival time, dose: 100.0 mg/kg/injection, schedule: Q01DX009 (ip), vehicle: saline with Tween-80
[9] = endpoint: mean survival time, dose: 200.0 mg/kg/injection, schedule: Q01DX009 (ip), vehicle: saline with Tween-80
[10] = endpoint: mean survival time, dose: 400.0 mg/kg/injection, schedule: Q01DX009 (ip), vehicle: saline with Tween-80
[11] = endpoint: mean survival time, dose: 200.0 mg/kg/injection, schedule: Q01DX001 (ip), vehicle: saline
[12] = endpoint: mean survival time, dose: 400.0 mg/kg/injection, schedule: Q01DX001 (ip), vehicle: saline
[13] = endpoint: mean survival time, dose: 50.0 mg/kg/injection, schedule: Q01DX009 (ip), vehicle: saline with Tween-80

Measured: T/C

C=C1C(=O)OC2CC(C)C3CC(OCCCl)OC(OCCCl)C3(C)CC12 (stereo not given)
inactive: endpoint: mean survival time, dose: 10.0 mg/kg/injection, schedule: Q01DX005 (ip), vehicle: water 98 % of control | endpoint: mean survival time, dose: 20.0 mg/kg/injection, schedule: Q01DX005 (ip), vehicle: water 96 % of control | endpoint: mean survival time, dose: 40.0 mg/kg/injection, schedule: Q01DX005 (ip), vehicle: water 93 % of control | endpoint: mean survival time, dose: 50.0 mg/kg/injection, schedule: Q01DX005 (ip), vehicle: distilled water + Tween-80 92 % of control | endpoint: mean survival time, dose: 80.0 mg/kg/injection, schedule: Q01DX005 (ip), vehicle: water 94 % of control | endpoint: mean survival time, dose: 100.0 mg/kg/injection, schedule: Q01DX005 (ip), vehicle: distilled water + Tween-80 97 % of control | endpoint: mean survival time, dose: 200.0 mg/kg/injection, schedule: Q01DX005 (ip), vehicle: distilled water + Tween-80 89 % of control | endpoint: mean survival time, dose: 400.0 mg/kg/injection, schedule: Q01DX005 (ip), vehicle: distilled water + Tween-80 94 % of control

C/C(=C\C(=O)C(C)(C)C)C(C)(C)C
inactive: endpoint: mean survival time, dose: 100.0 mg/kg/injection, schedule: Q01DX001 (ip), vehicle: saline with Tween-80 93 % of control | endpoint: mean survival time, dose: 200.0 mg/kg/injection, schedule: Q01DX001 (ip), vehicle: saline with Tween-80 96 % of control | endpoint: mean survival time, dose: 400.0 mg/kg/injection, schedule: Q01DX001 (ip), vehicle: saline with Tween-80 96 % of control

c1ccc(CCNCc2ccccn2)nc1
inactive: endpoint: mean survival time, dose: 25.0 mg/kg/injection, schedule: Q04DX002 (ip), vehicle: saline 96 % of control | endpoint: mean survival time, dose: 50.0 mg/kg/injection, schedule: Q04DX002 (ip), vehicle: saline 101 % of control | [1] 94 % of control | endpoint: mean survival time, dose: 100.0 mg/kg/injection, schedule: Q04DX002 (ip), vehicle: saline 96 % of control

OCC1OC(OC2C(CO)OC(Sc3ccccc3)C(O)C2O)C(O)C(O)C1O (stereo not given)
inactive: [2] 97 % of control | [3] 103 % of control | [4] 95 % of control | [5] 103 % of control | [6] 97 % of control | [7] 95 % of control

C=C1C(O)C2(O)OCC34C(CC5C(C)=CC(=O)C(O)C5(C)C23)OC(=O)C(OC(=O)C/C=C(\C)CCCCC)C14 (stereo not given)
inactive: endpoint: median survival time, dose: 1.0 mg/kg/injection, schedule: Q01DX005 (ip), vehicle: saline + alcohol 109 % of control | endpoint: median survival time, dose: 2.0 mg/kg/injection, schedule: Q01DX005 (ip), vehicle: saline + alcohol 118 % of control | endpoint: median survival time, dose: 8.0 mg/kg/injection, schedule: Q01DX005 (ip), vehicle: saline + alcohol 121 % of control

Cc1ccc(S(=O)(=O)OCC(OS(=O)(=O)c2ccc(C)cc2)C2OC(c3ccccc3)OC2C2COC(c3ccccc3)O2)cc1 (stereo not given)
inactive: [8] 95 % of control | [9] 95 % of control | [10] 95 % of control

COc1cccc(CO)c1Oc1ccc(C)cc1
inactive: [1] 102 % of control | [3] 89 % of control | [11] 105 % of control | [5] 89 % of control | [12] 100 % of control | [7] 89 % of control

O=C1CCn2cccc21
inactive: endpoint: median survival time, dose: 25.0 mg/kg/injection, schedule: Q04DX002 (ip), vehicle: saline 100 % of control | endpoint: median survival time, dose: 50.0 mg/kg/injection, schedule: Q04DX002 (ip), vehicle: saline 100 % of control | endpoint: median survival time, dose: 100.0 mg/kg/injection, schedule: Q04DX002 (ip), vehicle: saline 100 % of control | endpoint: median survival time, dose: 200.0 mg/kg/injection, schedule: Q04DX002 (ip), vehicle: saline 100 % of control

O=C1CC(C(=O)O)C2(CCCCCC2)O1 (stereo not given)
inactive: endpoint: median survival time, dose: 12.5 mg/kg/injection, schedule: Q04DX003 (ip), vehicle: saline with Tween-80 90 % of control | endpoint: median survival time, dose: 25.0 mg/kg/injection, schedule: Q04DX003 (ip), vehicle: saline with Tween-80 90 % of control | endpoint: median survival time, dose: 50.0 mg/kg/injection, schedule: Q04DX003 (ip), vehicle: saline with Tween-80 100 % of control

CC[S-].CC[S-].[Ni+2]
inactive: endpoint: mean survival time, dose: 5.0 mg/kg/injection, schedule: Q01DX001 (ip), vehicle: saline 103 % of control | endpoint: mean survival time, dose: 10.0 mg/kg/injection, schedule: Q01DX001 (ip), vehicle: saline 103 % of control | endpoint: mean survival time, dose: 20.0 mg/kg/injection, schedule: Q01DX001 (ip), vehicle: saline 103 % of control

C(=C\CN(Cc1ccccc1)Cc1ccccc1)/CN(Cc1ccccc1)Cc1ccccc1
inactive: endpoint: mean survival time, dose: 100.0 mg/kg/injection, schedule: Q01DX009 (ip), vehicle: Klucel (hydroxypropylcellulose) (HPC) 95 % of control | endpoint: mean survival time, dose: 200.0 mg/kg/injection, schedule: Q01DX009 (ip), vehicle: Klucel (hydroxypropylcellulose) (HPC) 97 % of control

C1=CC23CC(c4ccccc42)C2c4ccccc4C23C=C1 (stereo not given)
inactive: [8] 101 % of control | [2] 93 % of control | [9] 101 % of control | [4] 95 % of control | [10] 95 % of control | [6] 93 % of control

C[S+]1C=C(c2ccccc2)C=C(c2ccccc2)C1 (stereo not given)
inactive: endpoint: mean survival time, dose: 7.5 mg/kg/injection, schedule: Q01DX001 (ip), vehicle: saline with Tween-80 114 % of control

CC(OC(=O)c1ccc([N+](=O)[O-])cc1)C(C)(C)C (stereo not given)
inactive: [1] 98 % of control | [11] 100 % of control | [12] 96 % of control

Nc1ccc2c(c1)C(=O)c1ccccc1C2=O
inactive: endpoint: mean survival time, dose: 25.0 mg/kg/injection, schedule: Q01DX009 (ip), vehicle: saline with Tween-80 98 % of control | [13] 98 % of control | [8] 101 % of control and 102 % of control | [9] 102 % of control | [10] 96 % of control

O=[N+]([O-])c1ccc(S(=O)(=O)c2ccc([N+](=O)[O-])cc2)cc1
inactive: [13] 93 % of control | [8] 93 % of control | [9] 93 % of control

C[N+](C)(C)CC1CS1 (stereo not given)
inactive: endpoint: mean survival time, dose: 4.5 mg/kg/injection, schedule: Q01DX009 (ip), vehicle: saline sonified 96 % of control | endpoint: mean survival time, dose: 4.5 mg/kg/injection, schedule: Q04DX003 (ip), vehicle: saline 98 % of control | endpoint: mean survival time, dose: 9.0 mg/kg/injection, schedule: Q01DX009 (ip), vehicle: saline sonified 94 % of control | endpoint: mean survival time, dose: 9.0 mg/kg/injection, schedule: Q04DX003 (ip), vehicle: saline 98 % of control | endpoint: mean survival time, dose: 18.0 mg/kg/injection, schedule: Q01DX009 (ip), vehicle: saline sonified 92 % of control | endpoint: mean survival time, dose: 18.0 mg/kg/injection, schedule: Q04DX003 (ip), vehicle: saline 95 % of control

O=[N+]([O-])c1cc(P(=O)(O)O)c(Cl)cc1Cl
inactive: endpoint: mean survival time, dose: 50.0 mg/kg/injection, schedule: Q04DX003 (ip), vehicle: saline 101 % of control | [3] 90 % of control | [5] 93 % of control

CCOC1CCN(CCCn2c3ccccc3c3ccccc32)CC1
inactive: endpoint: mean survival time, dose: 25.0 mg/kg/injection, schedule: Q04DX002 (ip), vehicle: saline with Tween-80 95 % of control | endpoint: mean survival time, dose: 50.0 mg/kg/injection, schedule: Q04DX002 (ip), vehicle: saline with Tween-80 100 % of control | endpoint: mean survival time, dose: 100.0 mg/kg/injection, schedule: Q04DX002 (ip), vehicle: saline with Tween-80 97 % of control and 111 % of control

COc1cc(NCc2ccccc2O)c2ncccc2c1
inactive: endpoint: mean survival time, dose: 50.0 mg/kg/injection, schedule: Q04DX003 (ip), vehicle: saline with Tween-80 91 % of control | [2] 91 % of control | [4] 91 % of control

O=S(=O)(O)O.[N-]=C(N)/N=C(\[NH-])N.[N-]=C(N)/N=C(\[NH-])N.[N-]=C(N)NC(=[N-])N.[Rh+3]
inactive: endpoint: mean survival time, dose: 25.0 mg/kg/injection, schedule: Q04DX003 (ip), vehicle: saline 96 % of control | [3] 100 % of control
